Measured values from US6835382B2, “Ii peptide therapeutics to enhance antigen presentation” (University of Massachusetts, priority 1996, dated 2004).
Positions of bridges follow the written chain, without caps; N, C: chain ends. Non-standard residues stand in square brackets, D forms with d. No end group written: not given here. hArg = N=C(N)NCCCC[C@H](N)C(=O)O; Cit = NC(=O)NCCC[C@H](N)C(=O)O

Legend:
Type in all cases: cell-based
[1] = target: T1, murine E^d MHC class II allele (Mus musculus, UniProt P01904+P01915); test: antigenic peptide prepulse assay, E^d allele (fixed APC prepulsed with HEL106-116); parameters: The A20 and CH27 B cell lymphoma lines express H-2^d and H-2^k alleles, respectively; endogenous in cells; host or cells: A20 B cell lymphoma (mitomycin C-treated or paraformaldehyde-fixed); conditions: AE peptide 64 μM, prepulse 24 μM antigenic peptide; for Activity in antigenic peptide prepulse assay, E^d (baseline = 1.00): Table 25
T1 sequence (P01904 26-255): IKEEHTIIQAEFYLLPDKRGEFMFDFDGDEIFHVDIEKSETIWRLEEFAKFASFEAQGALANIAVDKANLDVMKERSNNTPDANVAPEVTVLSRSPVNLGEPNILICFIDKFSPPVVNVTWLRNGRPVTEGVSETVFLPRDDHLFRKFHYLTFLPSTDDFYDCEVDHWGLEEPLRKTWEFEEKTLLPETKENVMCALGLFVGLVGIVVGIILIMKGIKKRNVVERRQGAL
T1 sequence (P01915 27-264 limits assumed): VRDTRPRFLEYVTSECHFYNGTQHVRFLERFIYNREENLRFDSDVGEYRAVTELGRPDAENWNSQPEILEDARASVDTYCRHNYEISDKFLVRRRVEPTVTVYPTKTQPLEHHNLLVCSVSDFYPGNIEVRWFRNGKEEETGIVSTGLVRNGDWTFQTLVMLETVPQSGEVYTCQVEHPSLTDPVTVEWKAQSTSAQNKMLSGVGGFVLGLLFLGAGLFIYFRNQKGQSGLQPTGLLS

[2] = test system: murine E^k MHC class II allele; test: AE101 series peptide prepulse assay, E^k allele; conditions: Table 35; AE101 series peptide prepulse 64 μM; antigenic peptide 0.4 μM; supernatant dilution 1:2
Protocol: (§1) Table 35: Activities of multiple substitution analogs of AE235, targeting the E^k and E^d allele, in an AE101 series peptide prepulse assay. In this assay the concentration of AE101 series peptides used during the prepulse was 64 μM. The concentrations of antigenic peptides were 0.3 μM for Ed and 0.4 μM for E^k. The supernatant dilutions taken into the HT-2 cell assay was 1:4 for E and 1:2 for E^k. The AE381 peptide is a head-to-tail cyclization: the amino terminal amino group is coupled through an amide linkage to the carboxyl terminal group. The AE 382 peptide is a side-to-tail cyclization: the epsilon amino group of Lys^4 is coupled through an amide linkage to the carboxyl terminal group.
(§2) AE101 series peptide prepulse assays were carried out in the E^d and E^k systems as described for simultaneous competition assays with the following modifications. Fixed APC were first incubated for 6 h at 1×10^6DMEM-5% FCS with 64 μM of each AE101 series peptide or with PBS. The APC were then washed four times with ten volumes of DMEM-5% FCS, and were cocultured with T hybridoma cells and the indicated submaximal doses of antigenic peptides used in the simultaneous competition assays. The baseline T cell response was measured by culturing T hybridoma cells with antigenic peptide and PBS-pretreated APC.

[3] = target: T1, murine E^d MHC class II allele; test: AE101 series peptide prepulse assay, E^d allele; conditions: for T cell response relative to baseline with PBS-pretreated APC (NONE = 1.0), E^d: Table 35, AE101 series peptide prepulse 64 μM, antigenic peptide 0.3 μM, supernatant dilution 1:4
Protocol: as §1, §2

## Ac-LK HArg KYPK-NH2 [AE363]
[1]; Table 26, supernatant 1:2
  Activity in antigenic peptide prepulse assay, E^d (baseline = 1.0): 0.60

## cyclic LRMKLPK (bridge (positions not given here); also: cyclic, ring type not given here) [AE381, “head-to-tail” cyclization from the amino-terminus to the carboxyl-terminus of AE114]
[2]
  T cell response relative to baseline with PBS-pretreated APC (NONE = 1.0), E^k: 0.3
[3]
  T cell response relative to baseline with PBS-pretreated APC (NONE = 1.0), E^d: 1.0
[3]; text on Table 35, AE peptide prepulse 64 μM, E^d and E^k systems
  activity in the AE101 series peptide prepulse assay, in words: potent suppressive activity
[1]; Table 28, supernatant 1:4
  Activity in antigenic peptide prepulse assay, E^d (baseline = 1.0): 0.19

## Ac-A[Cit]NKNPK-NH2 [AE351]
[1]; supernatant 1:4
  Activity in antigenic peptide prepulse assay, E^d (baseline = 1.00): 0.42

## Ac-L[hArg]LKYPK-NH2 [AE361]
[1]; Table 26, supernatant 1:2
  Activity in antigenic peptide prepulse assay, E^d (baseline = 1.0): 0.83

## Ac-LRMKNPF-NH2 [AE350]
[1]; supernatant 1:4
  Activity in antigenic peptide prepulse assay, E^d (baseline = 1.00): 0.82

## Ac-LRMMYP[Cit]-NH2 [AE367]
[1]; Table 26, supernatant 1:2
  Activity in antigenic peptide prepulse assay, E^d (baseline = 1.0): 1.10

## Ac-LR Orn K HArg PK-NH2 [AE340]
[1]; supernatant 1:4
  Activity in antigenic peptide prepulse assay, E^d (baseline = 1.00): 0.10

## Ac-LKMKYPK-NH2 [AE362]
[1]; Table 26, supernatant 1:2
  Activity in antigenic peptide prepulse assay, E^d (baseline = 1.0): 0.76

## Ac-LRMKYP[Cit]-NH2 [AE364]
[1]; Table 26, supernatant 1:2
  Activity in antigenic peptide prepulse assay, E^d (baseline = 1.0): 0.34

## Ac-LR HArg KYP Cit-NH2 [AE366]
[2]
  T cell response relative to baseline with PBS-pretreated APC (NONE = 1.0), E^k: 3.5
[3]
  T cell response relative to baseline with PBS-pretreated APC (NONE = 1.0), E^d: 7.5
[1]; Table 26, supernatant 1:2
  Activity in antigenic peptide prepulse assay, E^d (baseline = 1.0): 0.44

## Ac-LRMKLPK (lactam 4-C) [AE382]
[2]
  T cell response relative to baseline with PBS-pretreated APC (NONE = 1.0), E^k: 3.2
[3]
  T cell response relative to baseline with PBS-pretreated APC (NONE = 1.0), E^d: 1.7
[1]; Table 28, supernatant 1:4
  Activity in antigenic peptide prepulse assay, E^d (baseline = 1.0): 0.52

## Ac-L[hArg]MKYPK-NH2 [AE360]
[1]; Table 26, supernatant 1:2
  Activity in antigenic peptide prepulse assay, E^d (baseline = 1.0): 0.91

## Ac-LRLKYPN-NH2 [AE368]
[1]; Table 26, supernatant 1:2
  Activity in antigenic peptide prepulse assay, E^d (baseline = 1.0): 0.55

## Ac-LR HArg MYPK-NH2 [AE365]
[1]; Table 26, supernatant 1:2
  Activity in antigenic peptide prepulse assay, E^d (baseline = 1.0): 0.70

## Ac-FK HArg MYP Cit-NH2 [AE371]
[1]; Table 26, supernatant 1:2
  Activity in antigenic peptide prepulse assay, E^d (baseline = 1.0): 0.90

## Ac-LRMKYPN-NH2 [AE370]
[1]; Table 26, supernatant 1:2
  Activity in antigenic peptide prepulse assay, E^d (baseline = 1.0): 0.74
